Laboratory results taken from the supplement of paper PMC10307832.

Assays:
Experiment in all cases: relative viability (nuclei count vs DMSO), 5 days (fraction); higher = more cells survive
[1] = compound: C1=CC2=C(C=CC(=C2)C=C3C(=O)NC(=NCC4=CC=CS4)S3)N=C1 [RO-3306] + COc1cccc2cc(-c3nc([C@H]4CC[C@H](C(=O)O)CC4)n4ncnc(N)c34)[nH]c12 [OSI-027] (partner 0.5 µM)
In short: (§1)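 A single step with final 0.05% Triton X-100, 1% formaldehyde and 1 ug/ml Hoechst fixed the cells and stained nuclei 5 days after treatment. Lung cancer cell lines in 1536-well plates had been treated by pin tool the day after seeding with one drug alone or a fixed anchor-drug dose plus five library-drug doses (not always all listed) in √10 steps, and nuclei were counted on 4× images. Relative viability is the ratio of nuclei in treated wells to nuclei in vehicle wells, taken as the median of duplicate plates.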

[2] = compound: C1=CC2=C(C=CC(=C2)C=C3C(=O)NC(=NCC4=CC=CS4)S3)N=C1 [RO-3306] + Cc1nc(Nc2ncc(C(=O)Nc3c(C)cccc3Cl)s2)cc(N2CCN(CCO)CC2)n1 [Dasatinib] (partner 0.075 µM)
In short: as §1

[3] = compound: C1=CC2=C(C=CC(=C2)C=C3C(=O)NC(=NCC4=CC=CS4)S3)N=C1 [RO-3306] + COc1cc2c(Oc3ccc(NC(=O)C4(C(=O)Nc5ccc(F)cc5)CC4)cc3F)ccnc2cc1OCCCN1CCOCC1 [Foretinib] (partner 0.25 µM)
In short: as §1

[4] = compound: O=S(=O)(c1ccccc1)N(CC(F)(F)F)c1ccc(C(O)(C(F)(F)F)C(F)(F)F)cc1 + Cc1nc(NC(=O)N2CCC[C@H]2C(N)=O)sc1-c1ccnc(C(C)(C)C(F)(F)F)c1 [Alpelisib] (partner 2 µM)
In short: as §1

| Cell Line | relative viability ([1]; first compound 0.01 µM) | relative viability ([1]; first compound 0.03162 µM) | relative viability ([1]; first compound 0.1 µM) | relative viability ([1]; first compound 0.3162 µM) | relative viability ([1]; first compound 1 µM) | relative viability ([2]; first compound 0.01 µM) | relative viability ([2]; first compound 0.03162 µM) | relative viability ([2]; first compound 0.1 µM) | relative viability ([2]; first compound 0.3162 µM) | relative viability ([2]; first compound 1 µM) | relative viability ([3]; first compound 0.01 µM) | relative viability ([3]; first compound 0.03162 µM) | relative viability ([3]; first compound 0.1 µM) | relative viability ([3]; first compound 0.3162 µM) | relative viability ([3]; first compound 1 µM) | relative viability ([4]; first compound 0.8 µM) | relative viability ([4]; first compound 2.53 µM) | relative viability ([4]; first compound 8 µM) |
| --- | --- | --- | --- | --- | --- | --- | --- | --- | --- | --- | --- | --- | --- | --- | --- | --- | --- | --- |
| HCC-827 | 0.855 | 0.59 | 0.808 | 0.8 | 0.8 | 0.221 | 0.314 | 0.24 | 0.317 | 0.299 | 1.07 | 1 | 1.05 | 1.03 | 1.06 | 1.05 | 1.05 | 0.842 |
| HOP-62 | 0.827 | 0.593 | 0.727 | 0.89 | 0.8 | 0.709 | 0.516 | 0.633 | 0.757 | 0.504 | 1.2 | 1.07 | 1.05 | 1.05 | 1.1 | 0.551 | 0.954 | 0.706 |
| IA-LM | – | – | – | – | – | – | – | – | – | – | 1.48 | – | 0.956 | 1.12 | 1.3 | 0.715 | 0.5 | 0.655 |
| LC-2-ad | 0.863 | 0.735 | 0.781 | 0.932 | 0.849 | 0.57 | 0.311 | 0.582 | 0.533 | 0.507 | 0.877 | 0.804 | 0.941 | 0.967 | 0.942 | 0.576 | 0.843 | 0.841 |
| LCLC-97TM1 | 0.53 | 0.391 | 0.476 | 0.549 | 0.454 | 0.792 | 0.714 | 0.929 | 0.779 | 0.859 | 0.928 | 0.866 | 0.927 | 0.9 | 1.01 | 0.241 | 0.252 | 0.263 |
| LCLC-103H | 0.479 | 0.392 | 0.45 | 0.418 | 0.508 | 0.472 | 0.478 | 0.44 | 0.401 | 0.385 | 0.695 | 0.647 | 0.779 | 0.719 | 0.835 | 1.11 | 0.999 | 1.03 |
| LK-2 | 0.209 | – | 0.157 | 0.17 | 0.202 | 0.333 | – | 0.489 | 0.258 | 0.283 | 1.28 | – | 1.5 | 1.17 | 1.37 | 1.08 | 1.16 | 1.05 |
| LOU-NH91 | 0.686 | 0.712 | 0.711 | 0.719 | 0.686 | 0.617 | 0.496 | 0.513 | 0.57 | 0.5 | 0.879 | 0.94 | 0.951 | 0.87 | 0.976 | 0.654 | 0.721 | 0.74 |
| LU99A | 0.296 | 0.284 | 0.297 | 0.317 | 0.274 | 0.606 | 0.581 | 0.553 | 0.507 | 0.553 | 0.869 | 0.798 | 0.844 | 0.835 | 0.733 | 0.606 | 0.498 | 0.472 |
| LXF-289 | 0.801 | 0.778 | 0.681 | 0.739 | 0.63 | 0.19 | 0.259 | 0.199 | 0.198 | 0.2 | 0.985 | 0.956 | 0.945 | 0.996 | 0.958 | 1.03 | 0.912 | 0.789 |
